Measurements from patent publication US6764829B2, “Nucleoside hydrolase and nucleoside phosphorylase detection kits, dipsticks and substrates” (Albert Einstein College of Medicine of Yeshiva University, priority 1996, dated 2004).
Like-named read-outs stand apart in the source and are kept apart here.

Key:
[1] = molecular target: T1, IAG-nucleoside hydrolase (Trypanosoma brucei, UniProt Q57ZL6); assay: Comparison of β-D-ribofuranoside substrates with IAG-nucleoside hydrolase (Table 3); format: biochemical; settings: for IAG NH rate: at 200 μM substrate
T1 sequence (Q57ZL6 1-327): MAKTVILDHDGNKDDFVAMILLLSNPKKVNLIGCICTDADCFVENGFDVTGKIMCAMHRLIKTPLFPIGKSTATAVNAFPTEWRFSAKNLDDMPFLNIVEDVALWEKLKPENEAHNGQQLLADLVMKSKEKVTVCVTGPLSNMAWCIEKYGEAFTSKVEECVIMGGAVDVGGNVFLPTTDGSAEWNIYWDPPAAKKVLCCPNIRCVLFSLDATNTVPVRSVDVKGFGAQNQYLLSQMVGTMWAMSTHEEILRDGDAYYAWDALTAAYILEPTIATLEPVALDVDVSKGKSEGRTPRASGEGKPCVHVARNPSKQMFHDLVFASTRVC
Method: (§1) The enzymes used were highly purified samples from Crithidia fasciculata (IU-nucleoside hydrolase) and Trypanosoma brucei brucei (IAG-nucleoside hydrolase), available as stock solutions of approximately 20 mg protein/mL.
(§2) Each reaction was conducted in a quartz cuvette with a 1 cm path length, placed in the observation chamber of a UV spectrophotometer, and in a total reaction volume of 600 μL. The temperature was adjusted by use of a circulating water bath, set so that the cuvette temperature equilibrated to 30° C. in about 5 minutes.
(§3) The β-D-ribofuranoside substrates were dissolved in aqueous buffer: 50 mM CHES for reactions at pH 10, 50 mM HEPES for reactions at pH 8. […] For the remaining reactions catalysed by IAG hydrolase, a single substrate concentration of between 100 and 300 μM was used.
(§4) The absorbance of each reaction mixture was monitored at or near the absorption maximum for the phenolic aglycon (as shown in Table 3). Monitoring began 5-10 minutes before the enzyme was added to determine if the substrate was stable under the reaction conditions.
(§5) Data were fitted to the Michaelis-Menton equation using kaleidagraph, and the resulting kinetic parameters along with other relevant data are summarized in Table 3.

[2] = molecular target: T2, IU-nucleoside hydrolase (Crithidia fasciculata, UniProt Q27546); assay: Comparison of β-D-ribofuranoside substrates with IU-nucleoside hydrolase (Table 3); format: biochemical; settings: for Km: read-out: IU NH Km
T2 sequence (Q27546 1-315): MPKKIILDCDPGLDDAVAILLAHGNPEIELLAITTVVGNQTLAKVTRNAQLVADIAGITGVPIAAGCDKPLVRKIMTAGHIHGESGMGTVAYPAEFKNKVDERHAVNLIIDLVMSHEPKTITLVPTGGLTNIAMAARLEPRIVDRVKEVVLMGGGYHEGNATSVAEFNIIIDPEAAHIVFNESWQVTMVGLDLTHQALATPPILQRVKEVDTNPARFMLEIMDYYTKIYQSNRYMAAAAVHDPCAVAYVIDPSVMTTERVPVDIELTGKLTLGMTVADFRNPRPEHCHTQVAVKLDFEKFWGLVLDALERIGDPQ
Method: as §1, §2, §3, §4, §5

[3] = molecular target: AMP nucleosidase (Escherichia coli, UniProt P0AE12); assay: Kinetic parameters with nitrophenylriboside 5-phosphate and purine substrate (Table 1); format: biochemical, E coli
AMP nucleosidase, sequence (P0AE12 whole entry): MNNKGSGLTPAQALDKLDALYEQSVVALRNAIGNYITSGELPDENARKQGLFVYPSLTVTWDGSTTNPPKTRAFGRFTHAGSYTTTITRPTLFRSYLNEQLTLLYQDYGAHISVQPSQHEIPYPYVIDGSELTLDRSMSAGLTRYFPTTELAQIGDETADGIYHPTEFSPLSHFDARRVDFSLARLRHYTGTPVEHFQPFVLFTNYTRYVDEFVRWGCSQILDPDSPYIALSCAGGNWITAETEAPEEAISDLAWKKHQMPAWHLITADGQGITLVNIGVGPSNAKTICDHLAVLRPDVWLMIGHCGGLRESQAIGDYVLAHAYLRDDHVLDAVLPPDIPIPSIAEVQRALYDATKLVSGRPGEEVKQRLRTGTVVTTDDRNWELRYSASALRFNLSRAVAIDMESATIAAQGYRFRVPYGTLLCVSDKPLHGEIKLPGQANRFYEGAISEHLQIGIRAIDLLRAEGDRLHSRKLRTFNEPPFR
Description: (§6) In this Example kinetic parameters for different enzymes were compared using nitrophenylriboside or a purine substrate. […] The E. coli and bovine spleen enzymes tested were ineffective in hydrolysing the substrate. The striking ability of one of the protozoan parasite enzymes to hydrolyse the substrate provides the basis for an assay for the protozoan parasites (see Example 22).

[4] = tested on: Giardia intestinalis (Portland 1 strain); assay: Hydrolysis of substrates by Giardia intestinalis supernatants; format: biochemical; settings: 0.24 mM substrate, 50 mM HEPES pH 8
Method: Giardia intestinalis (Portland 1 strain) was grown for 2 days in TYI-33 medium supplemented with 5 mM arginine, harvested and washed. A suspension containing 2.91×10^8 cells of Giardia intestinalis in 1 mL of aqueous HEPES buffer (40 mM. pH 7) was mixed with 1 mL of aqueous HEPES buffer (40 mM, pH 7) containing 0.1 mM protease inhibitor E-64 and sonicated (Branson sonicator, duty cycle 40, output 2.5), for 2-3 min in ice. The suspension was then centrifuged in a Beckman microfuge for 10 mins at 4° C., and the supernatant decanted.
A second suspension of 2.91×10^8 cells of Giardia intestinalis in 1 mL of aqueous HEPES buffer (40 mM, pH 7) was mixed with 1 mL of 0.5% aqueous Triton X-100, left at 4° C. overnight, and the supernatant was decanted.
Aliquots (between 2 and 100 μL) of each of these supernatants were made up to a volume of 1 mL of water containing 50 mM HEPES buffer at pH 8, 0.24 mM 4-nitrophenyl β-D-ribofuranoside or 4-pyridyl β-D-ribofuranoside. The release of the aglycon was monitored by absorption spectrometry at 400 nm or 253 nm, respectively.
Protein was determined by Lowry method (ie Folin reaction).

[5] = tested on: T. vaginalis; assay: Hydrolysis of substrates by T. vaginalis extract; format: biochemical; settings: Triton X-100 extract; determined as in Example 24
Method: T. vaginalis was grown for 2 days in TYM medium, harvested, and washed. […] The ability of the extract to hydrolyse substrates was determined as in Example 24. For 4-nitrophenyl β-D-ribofuranoside, the activity was 165 nmoles.min^−1 per 10^8 cells, corresponding to an activity for the enzyme of 9 nmoles.min^−1.(mg protein)^−1. For 4-pyridyl β-D-ribofuranoside, the activity was 74 nmoles.min^−1 per […] corresponding to an activity for the enzyme of 4 nmoles.min^−1.(mg protein)^−1.

[6] = substrate: O=[N+]([O-])c1ccc(O[C@@H]2O[C@H](CO)[C@@H](O)[C@H]2O)cc1; assay: Comparison of β-D-ribofuranoside substrates with IAG-nucleoside hydrolase (Table 3); format: biochemical, Trypanosoma brucei brucei; settings: other: At pH 10, 30.0 °C
Method: as §1, §2, §3, §4, §5

[7] = substrate: OC[C@H]1O[C@@H](Oc2ccncc2)[C@H](O)[C@@H]1O; assay: as above; format: biochemical, Trypanosoma brucei brucei; settings: other: At pH 10, 30.0 °C
Method: as §1, §2, §3, §4, §5

[8] = substrate: O=[N+]([O-])c1ccc(O[C@@H]2O[C@H](CO)[C@@H](O)[C@H]2O)cc1; assay: Kinetic parameters with nitrophenylriboside and purine substrate (Table 1); format: biochemical, Trypanosoma brucei brucei; settings: other: nitrophenylriboside as substrate, pH 8.0 in 50 mM HEPES, 30° C.
Description: as §6

[9] = substrate: O=[N+]([O-])c1ccc(O[C@@H]2O[C@H](CO)[C@@H](O)[C@H]2O)cc1; assay: Kinetic parameters (phosphorolysis) with nitrophenylriboside and purine substrate (Table 1); format: biochemical, bovine; settings: other: nitrophenylriboside as substrate, pH 8.0 in 50 mM HEPES, 30° C., 3 mM phosphate
Description: as §6

[10] = nitrophenylriboside 5-phosphate as substrate, pH 8.0 in 50 mM HEPES, 30° C., MgATP 100 μM

β-D-ribofuranoside of Luminol [Example 15]
IAG NH rate ([1]; pH 8.0): <0.01 min⁻¹
IAG NH rate ([1]; pH 10.0): <0.03 min⁻¹
IU NH kcat ([2]; At pH 10, 30° C.): 163 s⁻¹
Km ([2]; At pH 10, 30° C.): 133 µM

O=Cc1ccc(O[C@@H]2O[C@H](CO)[C@@H](O)[C@H]2O)cc1 [Example 20, 4-formylphenyl β-D-ribofuranoside]
IAG NH rate ([1]; pH 10.0): 0.01 min⁻¹

O=C(Nc1cccc(O[C@@H]2O[C@H](CO)[C@@H](O)[C@H]2O)c1)C(F)(F)F [Example 3, 3-trifluoroacetamidophenyl β-D-ribofuranoside]
Ki [2]: 27.7 µM

O=C1CCCc2c(O[C@@H]3O[C@H](CO)[C@@H](O)[C@H]3O)cccc21 [Example 5, 1-tetralone-5-yl β-D-ribofuranoside]
IAG NH rate ([1]; pH 8.0): <0.01 min⁻¹
IAG NH rate ([1]; pH 10.0): <0.01 min⁻¹
IU NH kcat ([2]; At pH 10, at 200 μM): 0.5 s⁻¹

nitrophenylriboside 5-phosphate
kcat/Km ratio ([3]; kcat/Km for the nitrophenyl substrate to that for AMP): 3 × 10^−7
Km [3, 10]: 6250 µM
kcat [3, 10]: 0.0004 s⁻¹

NC(=O)c1ccc(O[C@@H]2O[C@H](CO)[C@@H](O)[C@H]2O)nc1 [Example 19, 3-carboxamido-6-pyridyl β-D-ribofuranoside]
substrate quality in words [1]: good substrates
IAG NH rate ([1]; pH 8.0): >100 min⁻¹
IAG NH rate ([1]; pH 10.0): 24 min⁻¹
substrate quality in words [2]: good substrates
IU NH kcat ([2]; At pH 10, 30° C.): 141 s⁻¹
Km ([2]; At pH 10, 30° C.): 369 µM

OC[C@H]1O[C@@H](Oc2ccncc2)[C@H](O)[C@@H]1O [Example 12, 4-pyridyl β-D-ribofuranoside]
activity per cells [4]: 210 nmoles.min^−1 per 10^8 cells
activity for the enzyme ([4]; protein by Lowry method): 31 nmoles.min^−1.(mg protein)^−1
activity for the enzyme [5]: 4 nmoles.min^−1.(mg protein)^−1
activity per cells [5]: 74 nmoles.min^−1 per 10^−8 cells
substrate quality in words [1]: good substrates
substrate quality in words ([1]; listed as 4-pyridyl riboside): substantially greater activity
substrate quality in words [2]: good substrates
substrate quality in words ([2]; listed as 4-pyridyl riboside): lower activity

O=[N+]([O-])c1ccccc1O[C@@H]1O[C@H](CO)[C@@H](O)[C@H]1O [Example 9, 2-nitrophenyl β-D-ribofuranoside]
IAG NH rate ([1]; pH 10.0): 0.15 min⁻¹
substrate quality in words [2]: good substrates

Cc1cc(=O)oc2cc(O[C@@H]3O[C@H](CO)[C@@H](O)[C@H]3O)ccc12 [Example 10, 4-methylcoumarin-7-yl β-D-ribofuranoside]
IAG NH rate ([1]; pH 10.0): 0.003 min⁻¹
substrate quality in words [2]: good substrates

Nc1ccc(O[C@@H]2O[C@H](CO)[C@@H](O)[C@H]2O)cc1 [Example 6, p-aminophenyl β-D-ribofuranoside]
IU NH kcat ([2]; At pH 10, 30° C.): <0.01 s⁻¹

Nc1cccc(O[C@@H]2O[C@H](CO)[C@@H](O)[C@H]2O)c1 [Example 4, 3-aminophenyl β-D-ribofuranoside]
IAG NH rate ([1]; pH 10.0): <0.02 min⁻¹
Ki [2]: 72 µM
IU NH kcat ([2]; At pH 10, at 1240 μM): 0.7 s⁻¹

OC[C@H]1O[C@@H](Oc2cccc3ccccc23)[C@H](O)[C@@H]1O [Example 2, α-naphthyl β-D-ribofuranoside]
IAG NH rate ([1]; pH 10.0): <0.05 min⁻¹
Ki [2]: 7.3 µM
IU NH kcat ([2]; At pH 10, at 250 μM): .009 s⁻¹

OC[C@H]1O[C@@H](Oc2cccnc2)[C@H](O)[C@@H]1O [Example 11, 3-pyridyl β-D-ribofuranoside]
IAG NH rate ([1]; pH 10.0): 0.01 min⁻¹

O=C1OC(c2ccc(O)cc2)(c2ccc(O[C@@H]3O[C@H](CO)[C@@H](O)[C@H]3O)cc2)c2ccccc21 (stereo partly drawn) [Example 7, 3-(4-hydroxyphenyl)-1(3H)-isobenzofuranone-3-(phen-4-yl) β-D-ribofuranoside]
IAG NH rate ([1]; pH 8.0): <0.01 min⁻¹
IAG NH rate ([1]; pH 10.0): <0.01 min⁻¹
IU NH kcat ([2]; At pH 10, at 200 μM): 10 at sec^−1

OC[C@H]1O[C@@H](Oc2cccc3ncccc23)[C@H](O)[C@@H]1O [Example 14, 5-quinolyl β-D-ribofuranoside]
IAG NH rate ([1]; pH 8.0): 0.16 min⁻¹
IAG NH rate ([1]; pH 10.0): <0.01 min⁻¹

B1: IAG-nucleoside hydrolase (Trypanosoma brucei brucei TREU927) (protein)
chain: T1 sequence (Q57ZL6 1-327)
Km [6]: 529 µM
kcat [6]: 0.00317 s⁻¹
Km [7]: 306 µM
kcat [7]: 12 s⁻¹
Km [8]: 560 µM
kcat [8]: 0.82 s⁻¹
kcat/Km [8]: 1500 M⁻¹ s⁻¹

B2: Purine nucleoside phosphorylase (Bos taurus) (protein)
chain: MANGYTYEDYQDTAKWLLSHTEQRPQVAVICGSGLGGLVNKLTQAQTFDYSEIPNFPESTVPGHAGRLVFGILNGRACVMMQGRFHMYEGYPFWKVTFPVRVFRLLGVETLVVTNAAGGLNPNFEVGDIMLIRDHINLPGFSGENPLRGPNEERFGVRFPAMSDAYDRDMRQKAHSTWKQMGEQRELQEGTYVMLGGPNFETVAECRLLRNLGADAVGMSTVPEVIVARHCGLRVFGFSLITNKVIMDYESQGKANHEEVLEAGKQAAQKLEQFVSLLMASIPVSGHTG
notes: The E. coli and bovine spleen enzymes tested; from tissue; host or cells: bovine spleen
Km [9]: 224 µM
kcat [9]: 0.0002 s⁻¹
kcat/Km [9]: 0.89 M⁻¹ s⁻¹
